Data set [1] can be described thus: Pharmacokinetic assay in Balb/c mice (plasma and brain tissue). Conditions: male, Balb/c, mouse, in vivo, po, 5 mg/kg; for AUC(0-t): Area under curve AUC0-t; for AUC(0-inf): Area under curve AUC0-∞; for half-life: Half-life t1/2; for MRT: Mean residence time MRT; for Tmax: Peak time tmax; for Cmax: Plasma concentration Cmax. Format: in vivo. The protocol:
Balb/c mice were used as test animals. The pharmacokinetic behavior in mice (plasma and brain tissue) of the compounds of Example 2, Example 5, Example 7, Example 12, Example 18, Example 23, Example 26, Example 38, Example 41, Example 50, Example 51 and Example 66 orally administrated at a dose of 5 mg/kg was studied.
Each group had 24 male Balb/c mice. After an overnight fast, Balb/c mice were administrated p.o. with the test compound at an administration dose of 5 mg/kg and an administration volume of 10 mL/kg.
0.2 ml of blood was taken from the heart before administration and at 0, 0.5, 1, 2, 4, 6, 8 and 24 hours after administration. The samples were stored in EDTA-K2 tubes, and centrifuged for 6 minutes at 4° C., 6000 rpm to separate the plasma. The plasma samples were stored at −80° C. The mice were sacrificed with CO2, and the whole brain tissue was taken out, weighed, placed in a 2 mL centrifuge tube and stored at −80° C.
1) 160 μL of acetonitrile was added to 40 μL of the plasma sample for precipitation, and then the mixture was centrifuged for 5-20 minutes at 3500×g.
2) 90 μL of acetonitrile containing the internal standard (100 ng/mL) was added to 30 μL of the plasma and brain homogenate samples for precipitation, and then the mixture was centrifuged for 8 minutes at 13000 rpm.
3) 70 μL of the treated supernatant was taken and added to 70 μL of water, and mixed by vortex for 10 minutes. 20 μL of the mixture was taken to analyze the concentration of the test compound by LC/MS/MS. LC/MS/MS analysis instrument: AB Sciex API 4000 Qtrap.
2.6 Liquid Chromatography Analysis • Liquid chromatography condition: Shimadzu LC-20AD pump. • Chromatographic column: Agilent ZORBAX XDB-C18 (50×2.1 mm, 3.5 μm); Mobile phase: Eluent A was 0.1% formic acid in water, and Eluent B was acetonitrile. • Flow rate: 0.4 mL/min • Elution time: 0-4.0 minutes the eluent is as follows:
The main parameters of pharmacokinetics were calculated by WinNonlin 6.1.

A further data set deals with GABA-A receptor. Put plainly: 35S-TBPS binding assay on rat cerebral cortex cell membrane. Also on record: species or system Sprague-Dawley rat. Conditions: 2 nM 35S-TBPS, GABA added, read-out: 35S-TBPS bindng test, IC50 on inhibiting the TBPS binding activity. A digest of the protocol: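 Male Sprague-Dawley rat cortical membranes in PBS were preincubated 5 min at 25 °C with compound (8-point 3-fold series […], 1% DMSO), then with GABA ([…]). 2 nM 35S-TBPS was added for 20 h at 4 °C, followed by GF/C filtration and scintillation counting. % inhibition was normalised to DMSO and 10 μM reference controls, with IC50 from a 4-parameter fit.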

The test system of the next data set is ICR mice. Put plainly: In vivo pharmacodynamic test in the forced swimming model in mice. As to conditions: for Mean (immobility, %) / Mean (immobility, s): 10 mpk p.o.; for Mean (immobility, %): floating time percentage = 100*floating time/240 s; for Mean (immobility, s): latter four minutes of 6 min swim. How it is done:
The antidepressant effect of the compound was evaluated by the forced swimming model in mice.
Male ICR mice (25-35 g) were adapted in the test environment for 3 days before the forced swimming test.
According to the test design, the mice were randomly grouped on the day before the test according to body weight, with 12 mice in each group. Before the test, the compounds of each example were administrated intragastrically according to the Tmax thereof in the brain in mice pharmacokinetic test as follows:
1) Model group (0.5% CMC-Na+1% Tween 80 solution, p.o., 10 mL/kg);
2) Compounds of Example 2, Example 5, Example 7, Example 18, Example 23, Example 26 and Example 50 (10 mg/kg, p.o., 10 mL/kg).
When being administrated, the compounds of each example were suspended in 0.5% CMC-Na-1% Tween 80 solution to the desired concentration.
0.5-1 hour after administration, ICR mice were placed in a forced swimming device (transparent glass drum (water depth 18 cm, water temperature 25-26° C.), one mouse per tank) and forced to swim for 6 minutes. The forced swimming device recorded the floating time of the ICR mice during the entire 6 minutes, and the data of the latter four minutes were used for data analysis. The mice were taken out immediately after the swimming test, wiped dry and put back in their original cages.
Note: The criterion for determining the immobility time is that the mouse stops struggling in water and floats, and there are only slight limb movements to keep the head floating on the water.
3.4 Data Analysis Floating time percentage=100*floating time/240 s.

Usually AUC(0-t) stands for exposure summed from dosing to a finite time, without extrapolation to infinity. As usually defined, the AUC(0-inf) is total exposure, with the tail of the curve extrapolated. As usually defined, the half-life is how long it takes for the measured level to halve. The term MRT denotes a mean duration of stay, worked out from the concentration-time curve. The term Tmax denotes the time from dosing to the highest level. In general, Cmax refers to the maximum level reached in the sampled fluid or tissue. As usually defined, the IC50 is the concentration needed to halve the response being measured. As for `C[C@@]1(O)CC[C@@]2(F)[C@H](CC[C@H]3[C@@H]4CC[C@H](C(=O)Cn5nc6ccc(F)cc6n5)[C@@]4(C)CC[C@@H]32)C1` [Example 18, 2-(5-Fluoro-2H-benzo[d][1,2,3]triazol-2-yl)-1-((3R,5R,8S,9S,10R,13S,14S,17S)-10-fluoro-3-hydroxy-3,13-dimethylhexadecahydro-1H-cyclopenta[a]phenanthren-17-yl)ethan-1-one], in data set [1], the “Area under curve AUC0-t” value came out at 2141.1 ng·h/mL, the “Area under curve AUC0-∞” value came to 2186.8 ng·h/mL, the “Half-life t1/2” value came to 4.7 h and the “Mean residence time MRT” value is reported as 6.1 h. In data set [1], the “Plasma concentration Cmax” value turned out to be 281.7 ng/mL, the exposure AUC(0-t) was determined as 1520 ng·h/mL, the AUC(0-inf) stood at 1540 ng·h/mL and the half-life is 4.2 h. Moreover, in data set [1], the MRT turned out to be 5.5 h, the Tmax came to 1 h and the concentration peaked (Cmax) at 236 ng/mL. The IC50 in the data set on GABA-A receptor stood at 0.01 µM. Besides, in the data set with ICR mice, the “Mean (immobility, %)” value turned out to be 61.19% and the “Mean (immobility, s)” value worked out at 146.86 s.

As for `C[C@@]1(O)CC[C@@]2(F)[C@H](CC[C@H]3[C@@H]4CC[C@H](C(=O)Cn5cc(C(F)(F)F)cn5)[C@@]4(C)CC[C@@H]32)C1` [Example 7, 1-((3R,5R,8S,9S,10R,13S,14S,17S)-10-Fluoro-3-hydroxy-3,13-dimethylhexadecahydro-1H-cyclopenta[a]phenanthren-17-yl)-2-(4-(trifluoromethyl)-1H-pyrazol-1-yl)ethan-1-one], in data set [1], the “Area under curve AUC0-t” value was 5106.0 ng·h/mL, the “Area under curve AUC0-∞” value was 5514.3 ng·h/mL, the “Half-life t1/2” value is on record as 1.89 h and the “Mean residence time MRT” value was found to be 3.37 h. In data set [1], the “Plasma concentration Cmax” value came to 1263.3 ng/mL, the AUC(0-t) worked out at 3780 ng·h/mL, the AUC(0-inf) was found to be 3780 ng·h/mL and the half-life was 1.73 h. In data set [1], the MRT came out at 3.67 h, the Tmax amounted to 1 h and the Cmax is 888 ng/mL. The IC50 in the data set with GABA-A receptor amounted to 0.0124 µM. Further, in the data set with ICR mice, the “Mean (immobility, %)” value is recorded as 58.99% and the “Mean (immobility, s)” value worked out at 141.58 s.

Regarding `C[C@@]1(O)CC[C@@]2(F)[C@H](CC[C@H]3[C@@H]4CC[C@H](C(=O)Cn5nc(C#N)cc5C#N)[C@@]4(C)CC[C@@H]32)C1` [Example 50, 1-(2-((3R,5R,8S,9S,10R,13S,14S,17S)-10-Fluoro-3-hydroxy-3,13-dimethylhexadecahydro-1H-cyclopenta[a]phenanthren-17-yl)-2-oxoethyl)-1H-pyrazole-3,5-dicarbonitrile], in data set [1], the “Half-life t1/2” value was determined as 1.10 h, the “Mean residence time MRT” value is on record as 2.48 h, the half-life was 1.11 h and the MRT stood at 2.36 h. Besides, the Tmax in data set [1] worked out at 1 h. The IC50 with GABA-A receptor worked out at 0.0125 µM. Moreover, the “immobility time during the latter four minutes compared with that of the model group” value in the data set with ICR mice (10 mg/kg p.o.) is “very significantly different”. Also, in the data set on ICR mice, the “Mean (immobility, %)” value was determined as 42.11% and the “Mean (immobility, s)” value was found to be 101.07 s.
